# Experimental data as given in the NIST ThermoML archive (doi:10.1021/acs.jced.8b00015).
# ± gives the expanded uncertainty stated by the source.
# Tests used:
# [1] = xn = mol fraction of the nth substance listed; conditions: 298.15 K, 101.3 kPa, Liquid
# [2] = Crystal; DTA
Compound,"mass density ([1]; Pycnometric method, x2 = 0.143) [kg/m3]","mass density ([1]; Pycnometric method, x1 = 0.2) [kg/m3]","mass density ([1]; Pycnometric method, x1 = 0.25) [kg/m3]",other results
CN(CCO)CCO [N-methyldiethanolamine] + C[N+](C)(C)CCO.[Cl-],1046.8 ± 21,,,"mass density ([1]; Pycnometric method, x2 = 0.125): 1053.8 ± 21 kg/m3"
CCCC[N+](CCCC)(CCCC)CCCC.[Br-] [tetrabutylammonium bromide] + OCCO,,1072.7 ± 22,1069.8 ± 21,"mass density ([1]; Pycnometric method, x1 = 0.333): 1065.8 ± 21 kg/m3"
OCCNCCO [diethanolamine] + C[N+](C)(C)CCO.[Cl-],1098.4 ± 22,,,
C[N+](C)(C)CCO.[Cl-] [choline chloride] + OCCOCCO,,1112.1 ± 22,1116.9 ± 22,
CCCC[N+](CCCC)(CCCC)CCCC.[Br-] [tetrabutylammonium bromide] + OCCOCCO,,1081.8 ± 22,1078.2 ± 22,"mass density ([1]; Pycnometric method, x1 = 0.333): 1075.4 ± 22 kg/m3"
OCCNCCO [diethanolamine] + CCCC[N+](CCCC)(CCCC)CCCC.[Br-],1092.7 ± 22,,,
OCCNCCO [diethanolamine],,,,Normal melting temperature [2]: 27.00 ± 0.5 °C
CCCC[N+](CCCC)(CCCC)CCCC.[Br-] [tetrabutylammonium bromide] + CN(CCO)CCO,,1056.9 ± 21,1051.3 ± 21,
C[N+](C)(C)CCO.[Cl-] [choline chloride] + OCCO,,,,"mass density ([1]; Vibrating tube method, x1 = 0.333): 1116.8 ± 22 kg/m3"
